From paper PMC7899551, “Phase 1 study of Z-endoxifen in patients with advanced gynecologic, desmoid, and hormone receptor-positive solid tumors” (Oncotarget, 2021)

What was measured:
[1] = Safety: adverse events (CTCAE v4.0), DLT, MTD; type: in vivo
Procedure: This was an open-label trial of Z-endoxifen in patients with advanced solid tumors (https://clinicaltrials.gov/ identifier: NCT01273168). Z-endoxifen-HCl was supplied by the Pharmaceutical Management Branch, National Cancer Institute, as 20 and 40 mg capsules; agent was administered orally once daily on a continuous schedule in 28-day cycles with a starting dose of 20 mg/day taken either 1 hour before or 2 hours after meals. Dose escalation followed a traditional 3+3 design in which patients were dose-escalated to the next dose level (DL) in cohorts of 3 patients until dose-limiting toxicity (DLT) was observed. […] Eight dose levels (DL1-8) were examined: 20, 40, 60, 100, 140, 200, 280, and 360 mg, respectively. Two patients at DL8 received the free base form of Z-endoxifen on day 1 rather than the hydrochloride salt to assess the pharmacokinetics of that formulation.
Toxicities were graded using Common Terminology Criteria for Adverse Events (CTCAE) version 4.0. Toxicities were required to resolve to grade 2 or below prior to initiation of the next cycle. Occurrence of a DLT was to result in a dose reduction following resolution to grade ≤ 2. No more than 2 dose reductions were allowed per patient on study. The MTD was defined as the highest dose level at which no more than 1 in 6 patients experienced a DLT.

[2] = tested on: ER+ metastatic breast cancer; parameters: method as in PMID 28854070; settings: cited from earlier work

In the case of `CC/C(=C(\c1ccc(O)cc1)c1ccc(OCCNC)cc1)c1ccccc1` [Z-endoxifen], the “Anemia, grade 2” value ([1]; DL2 40 mg, n = 6) was 1 patients, the “Elevated ALT, grade 2” value ([1]; DL2 40 mg, n = 6) was 1 patients and the “Fatigue, grade 2” value ([1]; DL2 40 mg, n = 6) was 1 patients. For the same molecule, the “Lymphopenia, grade 2” value ([1]; DL2 40 mg, n = 6) was 3 patients, the “Mucositis (oral), grade 2” value ([1]; DL2 40 mg, n = 6) was 1 patients and the “Thromboembolic event, grade 2” value ([1]; DL2 40 mg, n = 6) was 1 patients. For the same molecule, the “Thromboembolic event, grade 4” value ([1]; DL2 40 mg, n = 6) was 1 patients, the “Vestibular disorder, grade 2” value ([1]; DL2 40 mg, n = 6) was 1 patients and the DLT ([1]; DL2 (40 mg/day), patient 4) was “grade 4 pulmonary embolism”. For the same molecule, the “Anemia, grade 2” value ([1]; DL3 60 mg, n = 3) was 1 patients, the “Leukopenia, grade 2” value ([1]; DL3 60 mg, n = 3) was 1 patients and the “Neutropenia, grade 2” value ([1]; DL3 60 mg, n = 3) was 1 patients. For the same molecule, the “Anemia, grade 2” value ([1]; DL4 100 mg, n = 3) was 1 patients, the “Lymphopenia, grade 2” value ([1]; DL4 100 mg, n = 3) was 1 patients and the “Fatigue, grade 2” value ([1]; DL5 140 mg, n = 3) was 1 patients. For the same molecule, the “Leukopenia, grade 2” value ([1]; DL5 140 mg, n = 3) was 1 patients, the “Neutropenia, grade 2” value ([1]; DL5 140 mg, n = 3) was 1 patients and the “Reflux, grade 2” value ([1]; DL5 140 mg, n = 3) was 1 patients. The “Fatigue, grade 2” value ([1]; DL6 200 mg, n = 3) was 1 patients, the “Hypertension, grade 2” value ([1]; DL6 200 mg, n = 3) was 1 patients and the “Abdominal pain, grade 3” value ([1]; DL7 280 mg, n = 7) was 1 patients. For the same molecule, the “Anemia, grade 2” value ([1]; DL7 280 mg, n = 7) was 2 patients, the “Diarrhea, grade 3” value ([1]; DL7 280 mg, n = 7) was 1 patients and the “Elevated ALT, grade 2” value ([1]; DL7 280 mg, n = 7) was 1 patients. For the same molecule, the “Elevated ALT, grade 3” value ([1]; DL7 280 mg, n = 7) was 1 patients, the “Elevated AST, grade 2” value ([1]; DL7 280 mg, n = 7) was 1 patients and the “Fatigue, grade 2” value ([1]; DL7 280 mg, n = 7) was 1 patients. The “Hypophosphatemia, grade 2” value ([1]; DL7 280 mg, n = 7) was 1 patients, the “Hypophosphatemia, grade 4” value ([1]; DL7 280 mg, n = 7) was 1 patients and the “Lymphopenia, grade 2” value ([1]; DL7 280 mg, n = 7) was 1 patients. For the same molecule, the DLT ([1]; DL7 (280 mg/day), patient 22) was “grade 3 ALT elevation”, the “Anemia, grade 2” value ([1]; DL8 360 mg, n = 12) was 4 patients and the “Anemia, grade 3” value ([1]; DL8 360 mg, n = 12) was 1 patients. The “Colonic perforation, grade 4” value ([1]; DL8 360 mg, n = 12) was 1 patients, the “Constipation, grade 2” value ([1]; DL8 360 mg, n = 12) was 1 patients and the “Dehydration, grade 3” value ([1]; DL8 360 mg, n = 12) was 1 patients. The “Dyspepsia, grade 2” value ([1]; DL8 360 mg, n = 12) was 1 patients, the “Elevated ALT, grade 2” value ([1]; DL8 360 mg, n = 12) was 2 patients and the “Elevated ALT, grade 3” value ([1]; DL8 360 mg, n = 12) was 1 patients. The “Elevated AST, grade 2” value ([1]; DL8 360 mg, n = 12) was 1 patients, the “Fatigue, grade 2” value ([1]; DL8 360 mg, n = 12) was 1 patients and the “Hyponatremia, grade 3” value ([1]; DL8 360 mg, n = 12) was 1 patients. The “Hypophosphatemia, grade 2” value ([1]; DL8 360 mg, n = 12) was 2 patients, the “Hypophosphatemia, grade 3” value ([1]; DL8 360 mg, n = 12) was 2 patients and the “Leukopenia, grade 2” value ([1]; DL8 360 mg, n = 12) was 1 patients. The “Lymphopenia, grade 2” value ([1]; DL8 360 mg, n = 12) was 5 patients, the “Lymphopenia, grade 3” value ([1]; DL8 360 mg, n = 12) was 1 patients and the “Nausea, grade 2” value ([1]; DL8 360 mg, n = 12) was 1 patients. For the same molecule, the “Rash, grade 2” value ([1]; DL8 360 mg, n = 12) was 1 patients, the “Stroke, grade 2” value ([1]; DL8 360 mg, n = 12) was 1 patients and the “Thromboembolic event, grade 2” value ([1]; DL8 360 mg, n = 12) was 1 patients. The “adverse event at end of cycle 1, disease most likely cause” value ([1]; DL8 (360 mg), patient with fallopian tube carcinoma) was “grade 4 colonic perforation”, the “grade 4 adverse events potentially related to the study agent” value ([1]; all dose levels) was “Three grade 4 adverse events” and the “anemia, grade ≥ 2 (grades 2 and 3), study-related” value ([1]; of 40 patients enrolled) was 10 patients. The “lymphopenia, grade ≥ 2 (grades 2 and 3), study-related” value ([1]; of 40 patients enrolled) was 11 patients, the tolerability ([1]; oral daily, 20-360 mg/day) was “generally well tolerated” and the maximum tolerated dose ([1]; oral daily, up to 360 mg/day) was “No maximum tolerated dose was established”. For the same molecule, the “Plasma concentration on day 1” value ([2]; 160 mg dose, 38 patients with ER+ metastatic breast cancer) was 333 ng/mL and the “overall CBR” value ([2]; previous trial, highest dose 160 mg/day) was 26.3%.
